In assay [1] the test system is MDA-MB-231. Kind of assay: Induction of apoptosis in human MDA-MB-231 cells assessed as PARP cleavage at 0.1 to 1 uM after 24 hrs by immunoblot method. Format: functional, cell-based. A general note: In western blotting, separated proteins are transferred to a membrane and probed.
Assay [2] concerns MDA-MB-231. Kind of assay: Induction of cell cycle arrest in human MDA-MB-231 cells assessed as accumulation at subG1 phase at 0.1 uM after 24 hrs by flow cytometry (reference value: 3.3 +/- 1.5%). It counts as functional. On the technique in general: In flow cytometry, cells or beads pass a laser one at a time.
Assay [3] concerns MDA-MB-231. Kind of assay: Induction of cell cycle arrest in human MDA-MB-231 cells assessed as accumulation at S phase at 0.1 uM after 24 hrs by flow cytometry (reference value: 12.4 +/- 2.1%). It counts as functional.
For another assay, the system named is SK-BR-3. Kind of assay: Antiproliferative activity against human SKBR3 cells after 72 hrs by XTT assay. The settings on record: SK-BR-3, 72 h. It counts as functional, cell-based. In general terms: Tetrazolium assays rely on reduction of a dye to a coloured formazan, in cell work by metabolically active cells.
Assay [4] can be described thus: Antiproliferative activity against human H1299 cells after 72 hrs by XTT assay. It counts as functional, cell-based. The settings on record: NCI-H1299, 72 h.
The test system of assay [5] is MDA-MB-231. Kind of assay: Induction of cell cycle arrest in human MDA-MB-231 cells assessed as accumulation at subG1 phase at 0.5 uM after 24 hrs by flow cytometry (reference value: 3.3 +/- 1.5%). Format: functional.
Assay [6] concerns MDA-MB-231. Put plainly: Induction of cell cycle arrest in human MDA-MB-231 cells assessed as accumulation at G1 phase at 0.1 uM after 24 hrs by flow cytometry (reference value: 63.1 +/- 2.7%). It counts as functional.
The subject of a further assay is A549. Kind of assay: Antiproliferative activity against human A549 cells after 72 hrs by XTT assay. It counts as functional, cell-based. The settings on record: A549, 72 h.
The test system of assay [7] is MDA-MB-231. Put plainly: Induction of cell cycle arrest in human MDA-MB-231 cells assessed as accumulation at G2/M phase at 0.5 uM after 24 hrs by flow cytometry (reference value: 22.1 +/- 3.1%). Format: functional.
Assay [8] has as its system MDA-MB-231. Kind of assay: Antiproliferative activity against human MDA-MB-231 cells at 0.1 to 5 uM by XTT assay. Format: functional, cell-based. The note with it: TDE = time-dependent effect.
The nature of assay [9]: Antiproliferative activity against human H184B5F5/M10 cells after 72 hrs by XTT assay. It counts as functional, cell-based. The note with it: H184B5F5/M10, 72 h.
The subject of assay [10] is MDA-MB-231. Put plainly: Induction of cell cycle arrest in human MDA-MB-231 cells assessed as accumulation at G1 phase at 1 uM after 24 hrs by flow cytometry (reference value: 63.1 +/- 2.7%). Format: functional.
The test system of assay [11] is MDA-MB-231. Put plainly: Induction of cell cycle arrest in human MDA-MB-231 cells assessed as accumulation at G2/M phase at 0.1 uM after 24 hrs by flow cytometry (reference value: 22.1 +/- 3.1%). It counts as functional.
The subject of assay [12] is MDA-MB-231. Put plainly: Induction of cell cycle arrest in human MDA-MB-231 cells assessed as accumulation at S phase at 1 uM after 24 hrs by flow cytometry (reference value: 12.4 +/- 2.1%). It counts as functional.
The subject of the next assay is MCF7. Kind of assay: Antiproliferative activity against human MCF7 cells after 72 hrs by XTT assay. Format: functional, cell-based. The settings on record: MCF7, 72 h.
Assay [13] deals with MDA-MB-231. Kind of assay: Antiproliferative activity against human MDA-MB-231 cells after 48 hrs by XTT assay. Format: functional, cell-based.
The test system of assay [14] is MDA-MB-231. Put plainly: Induction of apoptosis in human MDA-MB-231 cells assessed as caspase 3 activation at 0.1 to 1 uM after 24 hrs by immunoblot method. Format: functional, cell-based.
Assay [15] has as its system MDA-MB-231. Kind of assay: Induction of morphological changes in human MDA-MB-231 cells at 0.5 uM after 24 hrs by light microscopy. It counts as functional, cell-based.
In assay [16] the test system is MDA-MB-231. Put plainly: Induction of cell cycle arrest in human MDA-MB-231 cells assessed as accumulation at S phase at 0.5 uM after 24 hrs by flow cytometry (reference value: 12.4 +/- 2.1%). It counts as functional.
Assay [17] relates to MDA-MB-231. Kind of assay: Induction of cell cycle arrest in human MDA-MB-231 cells assessed as accumulation at G1 phase at 0.5 uM after 24 hrs by flow cytometry (reference value: 63.1 +/- 2.7%). Format: functional.
The subject of assay [18] is MDA-MB-231. Put plainly: Antiproliferative activity against human MDA-MB-231 cells after 72 hrs by XTT assay. The settings on record: MDA-MB-231, 72 h. Format: functional, cell-based.
Assay [19] can be described thus: Antiproliferative activity against human H460 cells after 72 hrs by XTT assay. The note with it: NCI-H460, 72 h. It counts as functional, cell-based.
Assay [20] has as its system MDA-MB-231. Kind of assay: Induction of cell cycle arrest in human MDA-MB-231 cells assessed as accumulation at subG1 phase at 1 uM after 24 hrs by flow cytometry (reference value: 3.3 +/- 1.5%). It counts as functional.
The next assay deals with H184B5F5/M10. Kind of assay: Antiproliferative activity against human H184B5F5/M10 cells at 0.1 to 5 uM after 12 to 48 hrs by XTT assay. Format: functional, cell-based.
For assay [21], the system named is MDA-MB-231. Kind of assay: Induction of cell cycle arrest in human MDA-MB-231 cells assessed as accumulation at G2/M phase at 1 uM after 24 hrs by flow cytometry (reference value: 22.1 +/- 3.1%). Format: functional.
Assay [22] can be described thus: Growth inhibition of human H1299 cells. Format: functional. The settings on record: NCI-H1299.
Assay [23] in a line: Growth inhibition of human Hep3B cells. It counts as functional, Hep 3B2.
The test system of assay [24] is MDA-MB-231. Kind of assay: Growth inhibition of human MDA-MB-231 cells. Format: functional.

The source made the active and inactive calls. No cut-off for these calls is given here.

In general, IC50 refers to the concentration needed to halve the response being measured. Turning to `COc1ccc(-c2cc3ccccc3nc2/C=C/C(=O)c2ccc(Br)s2)cc1`, the Activity result in the assay on MDA-MB-231 [1] was “Dose-dependent effect”; with MDA-MB-231 [2] it was 8.1%; with MDA-MB-231 [3], 13.1%; in the assay with MDA-MB-231 [5], 23.5%; in the assay with MDA-MB-231 [6] it was 54.3%; in the assay with MDA-MB-231 [7], 28.3%. In addition, the Activity result with MDA-MB-231 [8] was “tde”; in the assay on MDA-MB-231 [10], 30.1%; with MDA-MB-231 [11] it was 25.7%; in the assay with MDA-MB-231 [12] it was 7.2%; in the assay with MDA-MB-231 [13], “Dose-dependent effect”; in the assay with MDA-MB-231 [14] it was “Dose-dependent effect”. Besides, the Activity in the assay on MDA-MB-231 [16] was 10.1%; in the assay on MDA-MB-231 [17] it was 39.6%; with MDA-MB-231 [20] it was 33.4%; in the assay on MDA-MB-231 [21] it was 30.1%. The half-maximal inhibitory concentration (IC50) in the assay with SK-BR-3 is 520 nM; in assay [4], 710 nM; in the assay on A549 it was 6250 nM; in [9] it was 9380 nM; in the assay with MCF7, 910 nM; with MDA-MB-231 [18] it was under 100 nM. The molecule also yielded an IC50 in assay [19] of 5170 nM. The result in the assay on MDA-MB-231 [15] was Active. Moreover, the result in the assay with H184B5F5/M10 was inactive.
The term GI50 denotes the concentration that inhibits growth by half. The low end stands for greater sensitivity of the cells, the high end for lower sensitivity of the cells. As to `Fc1ccc2nc(-c3ccc(OCCN4CCCCC4)cc3)c(-c3ccc(OCCN4CCCCC4)cc3)cc2c1`, the GI50 in assay [22] was determined as 1460 nM; in [23] it was 710 nM; with MDA-MB-231 [24], 720 nM.

Values taken from ChEMBL document CHEMBL2311509, “Synthesis and antiproliferative evaluation of 3-phenylquinolinylchalcone derivatives against non-small cell lung cancers and breast cancers” (Eur J Med Chem, 2013).
